Results taken from patent US9796724B2, “Substituted pyrazolo[1,5-a]pyrimidine compounds as Trk kinase inhibitors” (Array BioPharma, Inc., priority 2009, dated 2017).

Assays:
[1] = target: TrkA (histidine-tagged recombinant human TrkA, cytoplasmic domain) (Homo sapiens (Human), UniProt P04629); assay: TrkA ELISA assay; assay type: biochemical; conditions: Table 1, 500 μM ATP, read-out: TrkA Enzyme IC50
Description: An enzyme-linked immunosorbant assay (ELISA) was used to assess TrkA kinase activity in the presence of inhibitors. Immulon 4HBX 384-well microtiter plates (Thermo part #8755) were coated with a 0.025 mg/mL solution of poly (Glu, Ala, Tyr; 6:3:1; Sigma P3899). […] The assay buffer consisted of 25 mM MOPS pH 7.5, 0.005% (v/v) Triton X-100 and 5 mM MgCl2. The reaction mixture was removed from the plate by washing with PBS containing 0.1% (v/v) Tween 20. The phosphorylated reaction product was detected using 0.2 μg/mL of a phosphotyrosine specific monoclonal antibody (clone PY20) conjugated to horseradish peroxidase in conjunction with the TMB Peroxidase Substrate System (KPL). After the addition of 1M phosphoric acid, the chromogenic substrate color intensity was quantitated via absorbance at 450 nm.

[2] = target: Human Jak2 kinase domain (Homo sapiens (Human), UniProt O60674); assay: Jak2 inhibition assay (Omnia kinase assay); assay type: biochemical; conditions: Table 1; >1000 nM when >50% inhibition not observed at 1000 nM; read-out: Jak2 Enzyme IC50
Sequence of Human Jak2 kinase domain (O60674 808-1132): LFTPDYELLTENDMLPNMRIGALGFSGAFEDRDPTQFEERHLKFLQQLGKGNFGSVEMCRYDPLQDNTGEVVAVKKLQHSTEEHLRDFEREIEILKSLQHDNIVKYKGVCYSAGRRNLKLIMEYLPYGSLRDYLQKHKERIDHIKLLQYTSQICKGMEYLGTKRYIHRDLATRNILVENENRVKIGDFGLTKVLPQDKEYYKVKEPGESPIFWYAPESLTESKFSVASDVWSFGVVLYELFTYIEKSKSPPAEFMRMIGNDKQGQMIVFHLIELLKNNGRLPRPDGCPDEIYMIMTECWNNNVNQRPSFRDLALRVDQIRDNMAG
Source text: The assays described in Examples C, D, E and F for the determination of JAK1, JAK2, JAK3 and Tyk2 kinase activity, respectively, utilized the Omnia® Kinase fluorescence peptide substrate-based technology (Invitrogen). The specific components of the assay mixture are described in Examples C, D and E. […] Two-μL aliquots of these were transferred to a fresh plate for a ten-fold intermediate dilution with assay buffer. […] Human Jak2 kinase domain comprising amino acids 808-1132 was purchased from Invitrogen Corporation, Carlsbad, Calif.

Sequence of TrkA (histidine-tagged recombinant human TrkA, cytoplasmic domain) (P04629 440-796): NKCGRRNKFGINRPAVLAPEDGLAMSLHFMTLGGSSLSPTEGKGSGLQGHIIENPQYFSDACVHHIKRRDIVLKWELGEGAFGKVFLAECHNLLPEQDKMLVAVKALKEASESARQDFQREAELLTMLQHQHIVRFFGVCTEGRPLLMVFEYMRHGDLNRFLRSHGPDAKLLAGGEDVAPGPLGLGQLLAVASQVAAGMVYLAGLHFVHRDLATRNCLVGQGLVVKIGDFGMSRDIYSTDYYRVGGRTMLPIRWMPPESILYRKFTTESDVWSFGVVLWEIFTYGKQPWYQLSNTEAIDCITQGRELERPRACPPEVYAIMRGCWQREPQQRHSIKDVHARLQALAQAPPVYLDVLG

In the case of `C[C@H](O)[C@@H](CO)NC(=O)c1cnn2ccc(N3CCC[C@@H]3c3cc(F)ccc3F)nc12` [Example 176, 5-((R)-2-(2,5-difluorophenyl)pyrrolidin-1-yl)-N-((2R,3S)-1,3-dihydroxybutan-2-yl)pyrazolo[1,5-a]pyrimidine-3-carboxamide], the IC50 [1] is reported as 27.2 nM and the IC50 [2] is reported as > 1000 nM.

With `C[C@H](O)[C@H](CO)NC(=O)c1cnn2ccc(N3CCC[C@@H]3c3cc(F)ccc3F)nc12` [Example 175, 5-((R)-2-(2,5-difluorophenyl)pyrrolidin-1-yl)-N-((2S,3S)-1,3-dihydroxybutan-2-yl)pyrazolo[1,5-a]pyrimidine-3-carboxamide] the IC50 [1] was 12.2 nM and the IC50 [2] was > 1000 nM.

In the case of `C[C@@H](O)[C@H](CO)NC(=O)c1cnn2ccc(N3CCC[C@@H]3c3cc(F)ccc3F)nc12` [Example 174, 5-((R)-2-(2,5-difluorophenyl)pyrrolidin-1-yl)-N-((2S,3R)-1,3-dihydroxybutan-2-yl)pyrazolo[1,5-a]pyrimidine-3-carboxamide], the IC50 [1] is reported as 16.3 nM and the IC50 [2] is reported as > 1000 nM.

An IC50 [1] of 11.6 nM was found for `O=C(NCCN1CCC(O)CC1)c1cnn2ccc(N3CCC[C@@H]3c3cc(F)ccc3F)nc12` [Example 170, 5-((R)-2-(2,5-difluorophenyl)pyrrolidin-1-yl)-N-(2-(4-hydroxypiperidin-1-yl)ethyl)pyrazolo[1,5-a]pyrimidine-3-carboxamide] in this work.
